The results in this text go back to ChEMBL document CHEMBL3217611, “Synthesis, cytotoxicity and hDHFR inhibition studies of 2H-pyrido[1,2-a]pyrimidin-2-ones” (Medchemcomm, 2013).

A word on the pIC50: it is the negative decadic logarithm of the IC50, by convention in mol/L.

pIC50: −log10 of the molar value.

One assay concerns A549. The assay is described as follows: Cytotoxicity against human A549 cells after 24 hrs by MTT assay. Format: functional, cell-based. To be noted: A549, 24 h. A general note: Tetrazolium dyes change colour on reduction, which living cells bring about.
The subject of the next assay is SK-N-SH. As to the kind of experiment: Cytotoxicity against human SK-N-SH cells after 24 hrs by MTT assay. Format: functional, cell-based.
The test system of another assay is MCF7. The assay is described as follows: Cytotoxicity against human MCF7 cells after 24 hrs by MTT assay. Type of assay: functional, cell-based. To be noted: MCF7, 24 h.
The subject of a further assay is HepG2. The assay is described as follows: cells. To be noted: Homo sapiens, HepG2, 24 h.
Another assay deals with HeLa. The assay is described as follows: cells. The conditions noted are these: Homo sapiens, 24 h.
For a further assay, the target named is T1, Dihydrofolate reductase (Homo sapiens, UniProt P00374).
T1 sequence (P00374 whole entry): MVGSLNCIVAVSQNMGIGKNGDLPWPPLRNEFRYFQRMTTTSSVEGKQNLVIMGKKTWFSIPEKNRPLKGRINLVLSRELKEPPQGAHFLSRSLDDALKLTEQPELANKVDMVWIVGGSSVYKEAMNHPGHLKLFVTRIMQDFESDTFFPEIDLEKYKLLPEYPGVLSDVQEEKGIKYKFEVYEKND
The assay is described as follows: Inhibition of human DHFR assessed as depletion of NADPH after 30 secs shaking by spectrophotometry.

Description for HeLa: Cytotoxicity against human HeLa cells after 24 hrs by MTT assay
Description for HepG2: Cytotoxicity against human HepG2 cells after 24 hrs by MTT assay

Take `O=c1nc2ccccn2cc1Cc1ccccc1`: the negative logarithm of the IC50 (pIC50) with A549 was 3.98; in the assay on SK-N-SH, 4.02; in the assay with MCF7, 4.12; with HepG2, less than 3.00; in the assay on HeLa, less than 3.00.

`O=c1nc2ccc(Cl)cn2cc1Cc1ccc(F)cc1`: the negative logarithm of the IC50 (pIC50) with A549 is 4.01; in the assay with SK-N-SH it was 5.01; with MCF7 it was 4.98; in the assay on HepG2, less than 3.00; with HeLa it was less than 3.00.

Take `O=c1nc2ccc(Br)cn2cc1Cc1ccc(Cl)cc1`: the negative-log IC50 (pIC50) in the assay on A549 is 3.98; in the assay on SK-N-SH, 6.03; in the assay on MCF7 it was less than 3.00; in the assay with HepG2 it was less than 3.00; in the assay on HeLa, less than 3.00.

Turning to `O=c1nc2ccc(Br)cn2cc1Cc1ccc(Br)cc1`, the pIC50 was 3.99 in the assay on A549; 6.06 in the assay on SK-N-SH; 4.01 with MCF7; less than 3.00 in the assay on HepG2; 3.03 in the assay with HeLa.

`Cc1ccc(Cc2cn3cc(Cl)ccc3nc2=O)cc1`: the pIC50 was less than 3.00 in the assay on A549; 6.07 in the assay on SK-N-SH; less than 3.00 with MCF7; less than 3.00 in the assay on HepG2; less than 3.00 in the assay with HeLa.

As for `COc1ccc(Cc2cn3cc(Br)ccc3nc2=O)cc1`, the pIC50 in the assay on A549 was less than 3.00; with SK-N-SH, 6.03; with MCF7, less than 3.00; in the assay on HepG2, less than 3.00; in the assay with HeLa, 3.03.

In the case of `O=c1nc2ccc(Cl)cn2cc1Cc1ccc([N+](=O)[O-])cc1`, the pIC50 in the assay on A549 is less than 3.00; in the assay on SK-N-SH, 6.03; in the assay on MCF7, less than 3.00; in the assay with HepG2, less than 3.00; in the assay on HeLa it was 3.03.

Regarding `O=c1nc2ccc(Cl)cn2cc1Cc1ccc(Oc2nc(Cl)c(Cl)cc2Cl)cc1`, the pIC50 in the assay on A549 is less than 3.00; in the assay with SK-N-SH it was 5.06; in the assay on MCF7 it was 4.01; with HepG2, 3.00; with HeLa, less than 3.00.

Consider `O=c1nc2ccc(Br)cn2cc1Cc1cccc(Oc2nc(Cl)c(Cl)cc2Cl)c1`, for which the negative logarithm of the IC50 (pIC50) at Dihydrofolate reductase was 5.56; with A549, less than 3.00; in the assay on SK-N-SH it was 5.03; with MCF7, 5.01; in the assay on HepG2, less than 3.00; in the assay with HeLa, less than 3.00.

Consider `O=c1nc2ccccn2cc1Cc1ccc(F)cc1C(F)(F)F`, for which the negative logarithm of the IC50 (pIC50) was 5.51 at Dihydrofolate reductase; less than 3.00 with A549; 5.06 in the assay with SK-N-SH; 5.01 in the assay on MCF7; 3.09 in the assay on HepG2; 4.06 in the assay with HeLa.

For the compound `O=c1nc2ccccn2cc1Cc1ccc(Br)cc1`, the negative logarithm of the IC50 (pIC50) in the assay on A549 was less than 3.00; in the assay with SK-N-SH, 3.79; in the assay with MCF7, 3.80; in the assay on HepG2, less than 3.00; in the assay with HeLa, less than 3.00.

As for `O=c1nc2ccc(Br)cn2cc1Cc1ccccc1`, the negative logarithm of the IC50 (pIC50) in the assay with A549 is less than 3.00; in the assay with SK-N-SH, 3.86; with MCF7, less than 3.00; with HepG2 it was less than 3.00; in the assay on HeLa, 3.82.

As to `O=c1nc2ccc(Cl)cn2cc1Cc1ccc(F)cc1C(F)(F)F`, the negative-log IC50 (pIC50) is less than 3.00 in the assay on A549; 3.97 in the assay on SK-N-SH; 3.74 in the assay on MCF7; less than 3.00 in the assay on HepG2; less than 3.00 with HeLa.

Regarding `O=c1nc2ccccn2cc1Cc1ccc(F)cc1`, the negative logarithm of the IC50 (pIC50) in the assay on A549 was less than 3.00; with SK-N-SH, 3.90; in the assay on MCF7, 3.70; with HepG2, less than 3.00; in the assay on HeLa, 3.86.

In the case of `Nc1cccn2cc(Cc3ccccc3)c(=O)nc12`, the pIC50 was 5.06 at Dihydrofolate reductase; 4.01 with A549; 3.94 in the assay with SK-N-SH; 3.98 in the assay on MCF7; 3.88 in the assay on HepG2; 3.95 with HeLa.

On to `Nc1cc(Br)cn2cc(Cc3ccccc3)c(=O)nc12`, for which the pIC50 with A549 was less than 3.00; with SK-N-SH, 3.83; in the assay on MCF7, less than 3.00; with HepG2, less than 3.00; in the assay on HeLa it was less than 3.00.

Consider `Nc1cccn2cc(Cc3ccc(F)cc3)c(=O)nc12`, for which the negative-log IC50 (pIC50) was less than 3.00 in the assay on A549; 3.90 in the assay with SK-N-SH; 3.87 in the assay on MCF7; less than 3.00 in the assay on HepG2; less than 3.00 in the assay on HeLa.

Take `Nc1cc(Br)cn2cc(Cc3ccc(F)cc3C(F)(F)F)c(=O)nc12`: the negative-log IC50 (pIC50) was less than 3.00 in the assay with A549; 3.88 with SK-N-SH; 3.82 with MCF7; less than 3.00 in the assay with HepG2; less than 3.00 with HeLa.

For `CC1(C)OC2O[C@@H](Cc3cn4ccccc4nc3=O)C(OCc3ccccc3)C2O1` (stereo partly specified), the negative-log IC50 (pIC50) with A549 was 3.70; with SK-N-SH, less than 3.00; in the assay with MCF7, less than 3.00; in the assay on HepG2, less than 3.00; in the assay on HeLa it was less than 3.00.

For `CC1(C)OC2O[C@@H](Cc3cn4cc(Cl)ccc4nc3=O)C(OCc3ccccc3)C2O1` (stereo partly specified), the pIC50 with A549 was 3.74; in the assay on SK-N-SH, less than 3.00; with MCF7, less than 3.00; in the assay with HepG2, less than 3.00; in the assay with HeLa, less than 3.00.

Consider `O=C1N=C2C=CC=CN2CC1C(O)c1cccs1` (stereo unspecified), for which the pIC50 with A549 was 3.61; in the assay with SK-N-SH, less than 3.00; with MCF7 it was 3.78; with HepG2, less than 3.00; in the assay with HeLa, 3.78.

Consider `O=c1nc2ccccn2cc1Cc1cccc(Oc2ccccc2)c1`, for which the negative logarithm of the IC50 (pIC50) in the assay on A549 is less than 3.00; in the assay on SK-N-SH, 3.85; in the assay on MCF7, 3.61; in the assay on HepG2, less than 3.00; in the assay on HeLa, less than 3.00.

With `COc1cccc2c1C(=O)c1c(O)c3c(c(O)c1C2=O)C[C@@](O)(C(=O)CO)C[C@@H]3O[C@H]1C[C@H](N)[C@H](O)[C@H](C)O1` [DOXORUBICIN], the pIC50 is 4.98 with A549, 4.96 with SK-N-SH and 5.95 in the assay on HeLa.
